# Assay results reported in paper PMC11859031, “Assessment of the In Vitro Biological Activities of Schiff Base-Synthesized Copper Oxide Nanoparticles as an Anti-Diabetic, Anti-Alzheimer, and Anti-Cancer Agent” (Pharmaceutics, 2025).
# Assays:
# [1] = target: bovine serum albumin (BSA) (Bos taurus, UniProt P02769); assay: Inhibition of protein denaturation (anti-arthritic); settings: read-out: Protein Denaturation Inhib. (%)
# Procedure: 3.5. Anti-arthritic activity
# In the anti-arthritic activity study, this assay involved determining the percentage of […]
# anti-inflammatory drug, as prepared according to Meera et al. The protein denaturation percentage was measured by mixing 0.5mL of the test control solution, prepared by combining 0.45 mL of bovine serum albumin (BSA) (5% w/v aqueous solution) with 0.05 mL of distilled water. Then, 0.05 mL of the test solution was added to 0.45 mL of distilled water to form the product control (0.5 mL). The […]
# pH value in all prepared solutions was adjusted to 6.3 using HCl (1N). All the samples were incubated at 37 °C for 20 min, and the temperature was then increased to 57 °C, maintaining the samples at that degree for 3 min. After cooling, 2.5 mL of phosphate buffer was added to the prepared solutions. The absorbance was […]
# protein denaturation inhibition can be calculated. Proteinase inhibitory activity was assessed by combining the test sample (1 mL) with a reaction mixture containing 0.06 mg trypsin dissolved in 1 mL of 20 mM Tris HCl buffer (pH 7.4). The mixture was then incubated for 5 minutes at 37°C, followed by the addition of 1 mL of casein (0.8% w/v). […] The cloudy suspension was then centrifuged, and the absorbance of the supernatant was measured at 210 nm against buffer as the blank. The percentage of proteinase inhibitory activity was then calculated. […]
# [2] = target: acetylcholinesterase (AChE) (Homo sapiens, UniProt P22303); assay: biochemical; settings: mean ± SE, n = 3
# Procedure: The absorbance was measured at 540 nm using a UV-Visible spectrophotometer. The IC50 of each tested sample was calculated by plotting a curve using a series of sample concentrations against the percent of α-amylase inhibition.
# The inhibition percentage (%) of the α-glucosidase enzyme was determined using the […]
# standard drug. Five μL of the α-glucosidase solution (10 units mL−1, 0.1moll−1 potassium phosphate buffer, pH 6.8) was pre -mixed with 10 μL of the sample solution at different concentrations (in 10% DMSO) i n 620 μL of 0.1 moll−1 potassium […]
# phosphate buffer (pH 6.8). […]
# phenyl glucopyranoside (pNPG, 10 mmoll−1) as a substrate was added to the mixture […]
# minutes, followed by the addition of 650 μL of 1 moll−1 Na2CO3 solution to terminate the reaction. The amount of released product (p-nitro phenol) was measured at 410 […]
# activity. The inhibition assay was performed in triplicate for all tests. The IC50 of each tested sample was calculated by plotting a curve using a series of sample concentrations against the percent of α-glucosidase inhibition.
# 3.4. Anti-Alzheimer's activity
# In this study, we assessed the inhibition percentage of the acetylcholinesterase (AChE) enzyme using Ellman's method with donepezil as the standard drug. […] After incubation, 5 µL of AChE at a concentration of 0.3 U/mL was added to start the reaction, and the absorbance […]
# [3] = target: T1, COX-2 (Homo sapiens, UniProt P35354); assay: COX-2 inhibition assay (Cayman kit); assay type: biochemical; settings: mean ± SE, n = 3
# T1 construct: purchased Cayman 560131
# T1 sequence (P35354 18-604): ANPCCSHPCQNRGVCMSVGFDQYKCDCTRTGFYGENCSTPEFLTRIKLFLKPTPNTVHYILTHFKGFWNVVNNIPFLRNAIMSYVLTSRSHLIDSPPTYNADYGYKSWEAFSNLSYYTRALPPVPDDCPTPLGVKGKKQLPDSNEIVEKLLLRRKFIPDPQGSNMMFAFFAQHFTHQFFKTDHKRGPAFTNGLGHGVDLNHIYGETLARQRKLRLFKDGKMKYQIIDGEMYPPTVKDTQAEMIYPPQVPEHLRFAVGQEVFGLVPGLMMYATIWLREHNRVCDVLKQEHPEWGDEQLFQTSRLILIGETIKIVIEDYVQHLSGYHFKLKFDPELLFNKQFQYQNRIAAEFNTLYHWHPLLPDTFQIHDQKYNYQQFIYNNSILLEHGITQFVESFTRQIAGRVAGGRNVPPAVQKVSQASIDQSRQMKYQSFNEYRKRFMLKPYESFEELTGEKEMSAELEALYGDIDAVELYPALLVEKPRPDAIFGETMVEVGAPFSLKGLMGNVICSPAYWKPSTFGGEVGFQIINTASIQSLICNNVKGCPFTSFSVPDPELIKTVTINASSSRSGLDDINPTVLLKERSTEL
# [4] = ABTS radical scavenging; settings: mean ± SE, n = 3
# Procedure: The procedure for the 2,2'-azinobis-(3-ethylbenzothiazoline-6-sulfonic acid) (ABTS) […]
# solution (7 mM) and potassium persulfate solution (2.4 mM). The working solution was prepared by mixing the two stock solutions in equal quantities and allowing them to react at room temperature in a dark place for 14 hours. The solution was then diluted by mixing 1 mL of ABTS solution with 60 mL of methanol to obtain an absorbance of 0.706 ± 0.01 units at 734 nm using a spectrophotometer. Fresh ABTS solution was prepared for each assay. The tested samples (at each concentration) were allowed to react with 1 mL of the ABTS solution, and the absorbance was taken at 734 nm after 7 minutes using a spectrophotometer. […]
# acetylcholinesterase (AChE), sequence (P22303 32-614, species assumed): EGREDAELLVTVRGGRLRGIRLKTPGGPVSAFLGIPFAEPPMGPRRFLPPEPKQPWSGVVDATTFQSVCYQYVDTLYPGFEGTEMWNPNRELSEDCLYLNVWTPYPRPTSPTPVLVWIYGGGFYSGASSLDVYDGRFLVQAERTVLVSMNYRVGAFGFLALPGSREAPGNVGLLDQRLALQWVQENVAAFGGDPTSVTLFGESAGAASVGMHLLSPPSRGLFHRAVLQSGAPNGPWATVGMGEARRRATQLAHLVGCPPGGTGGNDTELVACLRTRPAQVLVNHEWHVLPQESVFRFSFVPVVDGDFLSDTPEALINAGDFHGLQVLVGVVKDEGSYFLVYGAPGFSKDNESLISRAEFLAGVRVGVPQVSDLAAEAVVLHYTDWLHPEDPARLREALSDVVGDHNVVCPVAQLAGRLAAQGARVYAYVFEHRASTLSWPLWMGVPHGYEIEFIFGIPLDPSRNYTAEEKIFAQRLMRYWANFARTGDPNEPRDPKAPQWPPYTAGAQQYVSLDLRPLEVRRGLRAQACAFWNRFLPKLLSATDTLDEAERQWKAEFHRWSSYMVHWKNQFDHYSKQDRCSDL
# bovine serum albumin (BSA), sequence (P02769 25-607): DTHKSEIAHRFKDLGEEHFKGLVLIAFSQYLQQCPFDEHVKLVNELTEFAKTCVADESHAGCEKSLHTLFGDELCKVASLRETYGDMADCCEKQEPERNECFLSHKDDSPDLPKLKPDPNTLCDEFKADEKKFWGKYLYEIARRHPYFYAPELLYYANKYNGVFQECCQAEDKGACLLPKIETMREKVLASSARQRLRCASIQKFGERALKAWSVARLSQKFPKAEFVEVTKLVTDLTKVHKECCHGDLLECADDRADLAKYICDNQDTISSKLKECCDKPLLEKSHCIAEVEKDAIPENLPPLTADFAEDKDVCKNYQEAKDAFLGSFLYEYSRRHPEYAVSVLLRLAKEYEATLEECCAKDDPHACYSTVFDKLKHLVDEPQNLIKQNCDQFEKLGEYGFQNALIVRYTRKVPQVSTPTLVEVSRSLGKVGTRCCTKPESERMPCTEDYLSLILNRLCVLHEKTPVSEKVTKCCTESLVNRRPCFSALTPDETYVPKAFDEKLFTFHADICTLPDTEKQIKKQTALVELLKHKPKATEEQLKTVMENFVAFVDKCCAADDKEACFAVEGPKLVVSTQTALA
compound,measurement,setting,value
Cc1nn(-c2ccccc2)c(Cl)c1C=NN=C1C(=O)Nc2ccccc21 [SB],inhibition at 100 µg/mL,[1],26.11 ± 0.13%
same,inhibition at 100 µg/mL,"[2]; at 100 µg/mL, read-out: Acetylcholinesterase (AChE) Inhib. (%)",32.64 ± 0.16%
same,IC50,[2],19.2 µM
same,inhibition at 100 µg/mL,"[3]; at 100 µg/mL, read-out: COX-2 Inhib. (%)",33.86 ± 0.18%
same,IC50,[3],19.7 µM
same,Scavenging activity ABTS Inhib. (%),[4]; at 100 µg/mL,48.29 ± 0.18%
same,Scavenging activity ABTS IC50,[4],5.40 ± 0.06 µg/mL
